# Source: US4029688A, “Carbamic pesticidal compositions” (priority 1974, dated 1977)
# Test system: bean aphid (Aphis fabae Scop.)
# Experiment: Bean Aphid Foliage Spray Test
# Type: in vivo
# Design: key to Aphid: C: no control; B: partial control; A: excellent control
# Details: Aphis fabae, foliar; Table II, side by side comparison; read-out: Aphids LD50
# Description: (§1) Suspensions of the test compounds were prepared by dissolving one gram of compound in 50 milliliters of acetone in which had been dissolved 0.1 gram (10 percent of the weight of compound) of an alkylphenoxy polyethoxyethanol surfactant, as an emulsifying or dispersing agent. The resulting solution was mixed into 150 milliliters of water to give roughly 200 milliliters of a suspension containing the compound in finely divided form. The thus-prepared stock suspension contained 0.5 percent by weight of compound. The test concentrations in parts per million by weight employed in the tests described hereinbelow were obtained by appropriate dilutions of the stock suspension with water. The test procedures were as follows:
# Adults and nymphal stages of the bean aphid (Aphis fabae Scop.) reared on potted dwarf nasturtium plants at 65°-70° F. and 50-70 percent relative humidity, constituted the test insects. For testing purposes, the number of aphids per pot was standardized to 100-150 by trimming plants containing excess aphids.
# The test compounds were formulated by diluting the stock suspension with water to give a suspension containing 500 parts of test compound per million parts of final formulation.
# The potted plants (one pot per compound tested) infested with 100-150 aphids, were placed on a revolving turntable and sprayed with 100-110 milliliters of test compound formulation by use of a DeVilbiss spray gun set at 40 psig. air pressure. This application, which lasted 25 seconds, was sufficient to wet the plants to run-off. As a control, 100-110 milliliters of a water-acetone-emulsifier solution containing no test compound were also sprayed on infested plants. After spraying, the pots were placed on their sides on a sheet of white standard mimeograph paper which had been previously ruled to facilitate counting. Temperature and humidity in the test room during the 24 hour holding period were 65°-70° F. and 50-70 percent, respectively. Aphids which fell onto the paper and were unable to remain standing after being uprighted were considered dead. Aphids remaining on the plants were observed closely for movement and those which were unable to move the length of the body upon stimulation by prodding were considered dead. Percent mortality was recorded for various concentration levels.
# (§2) In the tests described above, the pesticidal activity of the compounds against aphid, mite, Southern Armyworm, Bean Beetle, house fly and nematode was rated as follows:
# (§3) Comparison tests were conducted to assess the biological and chemical properties of certain representative species of the claimed invention in relation to their corresponding N-methyl carbamate compositions. The test procedures described above were employed in these experiments in order to determine the LD50 (number of parts per million of active ingredients required to achieve fifty percent mortality of the insects tested) for each of the compositions tested. In the case of the aphid and mite tests a side by side comparison was made of the N-methyl carbamate composition versus the corresponding perhalomethylsulfenyl derivative.
row,Compound,LC50 [µg/mL]
1,CC(=NOC(=O)N(C)SC(Cl)(Cl)Cl)SCCC#N [1-(2-Cyanoethylthio)acetaldehyde O-(N-methyl-N-trichloromethanesulfenylcarbamoyl)oxime],10
2,CN(SC(Cl)(Cl)Cl)C(=O)ON=CC(C)(C)C#N [2-Methyl-2-cyanopropionaldehyde O-(N-methyl-N-trichloromethanesulfenylcarbamoyl)oxime],23
3,CN(SC(Cl)(Cl)Cl)C(=O)ON=CC(C)(C)[N+](=O)[O-] [2-Methyl-2-nitropropionaldehyde O-(N-methyl-N-trichloromethanesulfenylcarbamoyl)oxime],6

# Same assay, conditions: foliage spray, 500 parts per million, 24 hour
row,Compound,Aphid
1,CSCC(C)=NOC(=O)N(C)SC(Cl)(Cl)Cl,B
2,CSCC(=NOC(=O)N(C)SC(Cl)(Cl)Cl)C(C)(C)C,A
3,CC(CSC(C)(C)C)=NOC(=O)N(C)SC(Cl)(Cl)Cl,A
4,CC(=NOC(=O)N(C)SC(Cl)(Cl)Cl)C(C)(C)N=[N+]=[N-],A
5,CC(=NOC(=O)N(C)SC(Cl)(Cl)Cl)C(C)(C)[N+](=O)[O-],A
6,CC(C[N+](=O)[O-])=NOC(=O)N(C)SC(Cl)(Cl)Cl,C
7,CC(=NOC(=O)N(C)SC(Cl)(Cl)Cl)C(C)(C)C#N,A
8,COC(C)(C)C(Cl)=NOC(=O)N(C)SC(Cl)(Cl)Cl,A
9,CCOC(=O)CSC(C)(C)C=NOC(=O)N(C)SC(Cl)(Cl)Cl,A
10,CCOC(=O)C(C)SC(C)(C)C=NOC(=O)N(C)SC(Cl)(Cl)Cl (centres unmarked),A
11,CSC(=NOC(=O)N(C)SC(Cl)(Cl)Cl)C(C)(SC)SC,A
12,CCOC(=O)CSC(C)=NOC(=O)N(C)SC(Cl)(Cl)Cl,C
13,CCOC(=O)CCSC(C)=NOC(=O)N(C)SC(Cl)(Cl)Cl,B
14,CC(=NOC(=O)N(C)SC(Cl)(Cl)Cl)SCCC#N [1-(2-Cyanoethylthio)acetaldehyde O-(N-methyl-N-trichloromethanesulfenylcarbamoyl)oxime],A
15,CN(SC(Cl)(Cl)Cl)C(=O)ON=CC(C)(C)C#N [2-Methyl-2-cyanopropionaldehyde O-(N-methyl-N-trichloromethanesulfenylcarbamoyl)oxime],A
16,CN(SC(Cl)(Cl)Cl)C(=O)ON=CC(C)(C)[S+](C)[O-] (centres unmarked) [2-Methyl-2-methylsulfinylpropionaldehyde O-(N-methyl-N-trichloromethanesulfenylcarbamoyl)oxime],A
17,CN(SC(Cl)(Cl)Cl)C(=O)ON=CC(C)(C)S(C)(=O)=O [2-Methyl-2-methylsulfonylpropionaldehyde O-(N-methyl-N-trichloromethanesulfenylcarbamoyl)oxime],A
18,CN(SC(Cl)(Cl)Cl)C(=O)ON=CC(C)(C)[N+](=O)[O-] [2-Methyl-2-nitropropionaldehyde O-(N-methyl-N-trichloromethanesulfenylcarbamoyl)oxime],A
19,CN(SC(F)(F)F)C(=O)ON=CC(C)(C)C#N [drawing 12],A

# Test system: two-spotted mite (Tetranychus urticae Koch)
# Experiment: Mite Systemic Test
# Type: in vivo
# Design: key: C: no control; B: partial control; A: excellent control
# Details: soil drench, 20 milliliters of test formulation
# Description: as §1
# Adults and numphal stages of the two-spotted mite (Tetranychus urticae Koch), reared on Tendergreen bean plants at 80±5 percent relative humidity, were the test organisms. Infested leaves from a stock culture were placed on the primary leaves of two bean plants six to eight inches in height, growing in a 21/2 inch clay pot. 150 -200 Mites, a sufficient number for testing, transferred from the excised leaves to the fresh plants in a period of twenty-four hours. Following the twenty-four hour transfer period, the excised leaves were removed from the infested plants. The test compounds were formulated by diluting the stock suspension with water to give a suspension containing 500 parts of test compound per million parts of final formulation. The potted plants (one pot per compound) were placed on a revolving turntable and sprayed with 100-110 milliliters of test compound formulation by use of a DeVilbiss spray gun set at 40 psig. air pressure. This application, which lasted 25 seconds, was sufficient to wet the plants to run-off. As a control, 100-110 milliliters of a water solution containing acetone and emulsifier in the same concentrations as the test compound formulation, but containing no test compound, were also sprayed on infested plants. The sprayed plants were held at 80±5 percent relative humidity for six days, after which a mortality count of motile forms was made. Microscopic examination for motile forms was made on the leaves of the test plants. Any individual which was capable of locomotion upon prodding was considered living.
# Systemic treatments were made by drenching 20 milliliters of the test compound formulation into the soil around the roots of bean plants growing in 21/2 inch clay pots. These pots were held in 4 ounce wax paper containers to prevent cross-contamination and loss by leaching. The plants were 4 inches high at the time of treatment and had been infested with mites 24 hours previously. Subsequent steps for testing of the systemic miticidal activity were the same as those described above for the spray method of application.
# In the tests described above, the pesticidal activity of the compounds against aphid, mite, Southern Armyworm, Bean Beetle, house fly and nematode was rated as follows: […]
row,Compound,Mite (Systemic)
1,CSCC(C)=NOC(=O)N(C)SC(Cl)(Cl)Cl,C
2,CSCC(=NOC(=O)N(C)SC(Cl)(Cl)Cl)C(C)(C)C,A
3,CC(CSC(C)(C)C)=NOC(=O)N(C)SC(Cl)(Cl)Cl,C
4,CC(=NOC(=O)N(C)SC(Cl)(Cl)Cl)C(C)(C)N=[N+]=[N-],C
5,CC(=NOC(=O)N(C)SC(Cl)(Cl)Cl)C(C)(C)[N+](=O)[O-],A
6,CC(C[N+](=O)[O-])=NOC(=O)N(C)SC(Cl)(Cl)Cl,C
7,CC(=NOC(=O)N(C)SC(Cl)(Cl)Cl)C(C)(C)C#N,A
8,COC(C)(C)C(Cl)=NOC(=O)N(C)SC(Cl)(Cl)Cl,A
9,CCOC(=O)CSC(C)(C)C=NOC(=O)N(C)SC(Cl)(Cl)Cl,C
10,CCOC(=O)C(C)SC(C)(C)C=NOC(=O)N(C)SC(Cl)(Cl)Cl (centres unmarked),B
11,CSC(=NOC(=O)N(C)SC(Cl)(Cl)Cl)C(C)(SC)SC,B
12,CCOC(=O)CSC(C)=NOC(=O)N(C)SC(Cl)(Cl)Cl,C
13,CCOC(=O)CCSC(C)=NOC(=O)N(C)SC(Cl)(Cl)Cl,C
14,CN(SC(Cl)(Cl)Cl)C(=O)ON=CC(C)(C)C#N [2-Methyl-2-cyanopropionaldehyde O-(N-methyl-N-trichloromethanesulfenylcarbamoyl)oxime],A
15,CN(SC(Cl)(Cl)Cl)C(=O)ON=CC(C)(C)[S+](C)[O-] (centres unmarked) [2-Methyl-2-methylsulfinylpropionaldehyde O-(N-methyl-N-trichloromethanesulfenylcarbamoyl)oxime],A
16,CN(SC(Cl)(Cl)Cl)C(=O)ON=CC(C)(C)S(C)(=O)=O [2-Methyl-2-methylsulfonylpropionaldehyde O-(N-methyl-N-trichloromethanesulfenylcarbamoyl)oxime],C
17,CN(SC(Cl)(Cl)Cl)C(=O)ON=CC(C)(C)[N+](=O)[O-] [2-Methyl-2-nitropropionaldehyde O-(N-methyl-N-trichloromethanesulfenylcarbamoyl)oxime],A

# Test system: house flies (Musca domestica, L.)
# Experiment: Fly Bait Test
# Type: in vivo
# Design: key to Fly: C: no control; B: partial control; A: excellent control
# Details: Musca domestica; Table II; read-out: Housefly LD50
# Description: as §1
# Four to six day old adult house flies (Musca domestica, L.), reared according to the specifications of the Chemical Specialties Manufacturing Association (Blue Book, McNair-Dorland Co., N. Y. 1954; pages 243-244, 261) under controlled conditions of 80°±5° F. and 50±5 percent relative humidity, were the test insects. The flies were immobilized by anesthetizing with carbon dioxide and twenty-five immobilized individuals, males and females, were transferred to a cage consisting of a standard food strainer about five inches in diameter which was inverted over a wrapping-paper-covered surface. The test compounds were formulated by diluting the stock suspension with a 10 percent (by weight) sugar solution to give a suspension containing 500 parts of test compound per million parts of final formulation, by weight. Ten milliliters of the test formulation were added to a souffle cup containing a one-inch square of an absorbent cotton pad. This bait cup was introduced and centered on the blotting paper under the food strainer prior to admitting the anesthetized flies. The caged flies were allowed to feed on the bait for twenty-four hours, at a temperature of 80°±5° F. and the relative humidity of 50±5 percent.
# as §2, §3
row,Compound,LC50 [µg/mL]
1,CC(=NOC(=O)N(C)SC(Cl)(Cl)Cl)SCCC#N [1-(2-Cyanoethylthio)acetaldehyde O-(N-methyl-N-trichloromethanesulfenylcarbamoyl)oxime],3
2,CN(SC(Cl)(Cl)Cl)C(=O)ON=CC(C)(C)C#N [2-Methyl-2-cyanopropionaldehyde O-(N-methyl-N-trichloromethanesulfenylcarbamoyl)oxime],7
3,CN(SC(Cl)(Cl)Cl)C(=O)ON=CC(C)(C)[N+](=O)[O-] [2-Methyl-2-nitropropionaldehyde O-(N-methyl-N-trichloromethanesulfenylcarbamoyl)oxime],5

# Same assay, conditions: bait, 500 parts per million, twenty-four hours
row,Compound,Fly
1,CSCC(C)=NOC(=O)N(C)SC(Cl)(Cl)Cl,A
2,CSCC(=NOC(=O)N(C)SC(Cl)(Cl)Cl)C(C)(C)C,B
3,CC(CSC(C)(C)C)=NOC(=O)N(C)SC(Cl)(Cl)Cl,C
4,CC(=NOC(=O)N(C)SC(Cl)(Cl)Cl)C(C)(C)N=[N+]=[N-],A
5,CC(=NOC(=O)N(C)SC(Cl)(Cl)Cl)C(C)(C)[N+](=O)[O-],A
6,CC(C[N+](=O)[O-])=NOC(=O)N(C)SC(Cl)(Cl)Cl,A
7,CC(=NOC(=O)N(C)SC(Cl)(Cl)Cl)C(C)(C)C#N,A
8,COC(C)(C)C(Cl)=NOC(=O)N(C)SC(Cl)(Cl)Cl,A
9,CCOC(=O)CSC(C)(C)C=NOC(=O)N(C)SC(Cl)(Cl)Cl,C
10,CCOC(=O)C(C)SC(C)(C)C=NOC(=O)N(C)SC(Cl)(Cl)Cl (centres unmarked),C
11,CSC(=NOC(=O)N(C)SC(Cl)(Cl)Cl)C(C)(SC)SC,A
12,CCOC(=O)CSC(C)=NOC(=O)N(C)SC(Cl)(Cl)Cl,C
13,CCOC(=O)CCSC(C)=NOC(=O)N(C)SC(Cl)(Cl)Cl,B
14,CC(=NOC(=O)N(C)SC(Cl)(Cl)Cl)SCCC#N [1-(2-Cyanoethylthio)acetaldehyde O-(N-methyl-N-trichloromethanesulfenylcarbamoyl)oxime],A
15,CN(SC(Cl)(Cl)Cl)C(=O)ON=CC(C)(C)C#N [2-Methyl-2-cyanopropionaldehyde O-(N-methyl-N-trichloromethanesulfenylcarbamoyl)oxime],A
16,CN(SC(Cl)(Cl)Cl)C(=O)ON=CC(C)(C)[S+](C)[O-] (centres unmarked) [2-Methyl-2-methylsulfinylpropionaldehyde O-(N-methyl-N-trichloromethanesulfenylcarbamoyl)oxime],A
17,CN(SC(Cl)(Cl)Cl)C(=O)ON=CC(C)(C)S(C)(=O)=O [2-Methyl-2-methylsulfonylpropionaldehyde O-(N-methyl-N-trichloromethanesulfenylcarbamoyl)oxime],A
18,CN(SC(Cl)(Cl)Cl)C(=O)ON=CC(C)(C)[N+](=O)[O-] [2-Methyl-2-nitropropionaldehyde O-(N-methyl-N-trichloromethanesulfenylcarbamoyl)oxime],A
19,CN(SC(F)(F)F)C(=O)ON=CC(C)(C)C#N [drawing 12],A

# Test system: not listed separately
# Experiment: Peroral toxicity to mammals (rat)
# Details: in vivo, po, Table II
# Description: Certain of these compositions were also evaluated to determine their peroral toxicity to mammals. The animal selected for this experiment was the rat. The test results obtained are expressed in terms of the number of milligrams of composition per kilogram of weight of the animal required to achieve a mortality rate of 50 percent (LD50).
row,Compound,LD50 [mg/kg]
1,CN(SC(Cl)(Cl)Cl)C(=O)ON=CC(C)(C)C#N [2-Methyl-2-cyanopropionaldehyde O-(N-methyl-N-trichloromethanesulfenylcarbamoyl)oxime],28.3
2,CN(SC(Cl)(Cl)Cl)C(=O)ON=CC(C)(C)[N+](=O)[O-] [2-Methyl-2-nitropropionaldehyde O-(N-methyl-N-trichloromethanesulfenylcarbamoyl)oxime],14

# Same assay, conditions: in vivo, po, peroral, Table I
row,Compound,LD50 [mg/kg]
1,CC(=NOC(=O)N(C)SC(Cl)(Cl)Cl)SCCC#N [1-(2-Cyanoethylthio)acetaldehyde O-(N-methyl-N-trichloromethanesulfenylcarbamoyl)oxime],85.7
2,CN(SC(Cl)(Cl)Cl)C(=O)ON=CC(C)(C)[N+](=O)[O-] [2-Methyl-2-nitropropionaldehyde O-(N-methyl-N-trichloromethanesulfenylcarbamoyl)oxime],13

# Test system: not listed separately
# Experiment: Chemical stability
# Type: physicochemical
# Details: Table II
row,Compound,Stability
1,CC(=NOC(=O)N(C)SC(Cl)(Cl)Cl)SCCC#N [1-(2-Cyanoethylthio)acetaldehyde O-(N-methyl-N-trichloromethanesulfenylcarbamoyl)oxime],stable
2,CN(SC(Cl)(Cl)Cl)C(=O)ON=CC(C)(C)C#N [2-Methyl-2-cyanopropionaldehyde O-(N-methyl-N-trichloromethanesulfenylcarbamoyl)oxime],stable
3,CN(SC(Cl)(Cl)Cl)C(=O)ON=CC(C)(C)[N+](=O)[O-] [2-Methyl-2-nitropropionaldehyde O-(N-methyl-N-trichloromethanesulfenylcarbamoyl)oxime],stable
